From ChEMBL document CHEMBL3045255, “Novel quinolyl-thienyl chalcones and their 2-pyrazoline derivatives with diverse substitution pattern as antileishmanial agents against Leishmania major” (Med Chem Res, 2012)
Values after ≈ are worked out from the molar mass of the structure shown.

Tested on: Leishmania major
Experiment: Antileishmanial activity against promastigotes form of Leishmania major after 72 hr by cell counting using neubaur chamber
Format: functional, organism-based

Row | SMILES | IC50
1 | Cc1cccc2cc(C3CC(c4sccc4Br)=NN3)c(Cl)nc12 (centres undefined) | 0.94 µg/mL (≈ 2.31 µM)
2 | Cc1ccc2cc(C3CC(c4cc(C)sc4C)=NN3)c(Cl)nc2c1 (centres undefined) | 0.76 µg/mL (≈ 2.14 µM)
3 | Cc1cccc2cc(/C=C/C(=O)c3cc(Cl)sc3Cl)c(Cl)nc12 | 0.85 µg/mL (≈ 2.22 µM)
4 | Cc1ccc2cc(C3CC(c4ccc(I)s4)=NN3)c(Cl)nc2c1 (centres undefined) | 0.88 µg/mL (≈ 1.94 µM)
5 | Cc1csc(C2=NNC(c3cc4cccc(C)c4nc3Cl)C2)c1 (centres undefined) | 0.74 µg/mL (≈ 2.16 µM)
6 | Cc1ccc2cc(C3CC(c4sccc4C)=NN3)c(Cl)nc2c1 (centres undefined) | 0.76 µg/mL (≈ 2.22 µM)
7 | Cc1ccsc1C(=O)/C=C/c1cc2cccc(C)c2nc1Cl | 0.94 µg/mL (≈ 2.87 µM)
8 | Cc1csc(C2=NNC(c3cc4ccc(C)cc4nc3Cl)C2)c1 (centres undefined) | 0.87 µg/mL (≈ 2.54 µM)
9 | Cc1ccc2cc(C3CC(c4ccsc4)=NN3)c(Cl)nc2c1 (centres undefined) | 0.94 µg/mL (≈ 2.87 µM)
10 | Cc1cccc2cc(/C=C/C(=O)c3ccc(Cl)s3)c(Cl)nc12 | 0.65 µg/mL (≈ 1.87 µM)
11 | Cc1cccc2cc(/C=C/C(=O)c3ccc(Br)s3)c(Cl)nc12 | 0.78 µg/mL (≈ 1.99 µM)
12 | Cc1cc(C2=NNC(c3cc4cccc(C)c4nc3Cl)C2)c(C)s1 (centres undefined) | 0.93 µg/mL (≈ 2.61 µM)
13 | Cc1cc(C(=O)/C=C/c2cc3cccc(C)c3nc2Cl)c(C)s1 | 0.73 µg/mL (≈ 2.14 µM)
14 | Cc1ccsc1C1=NNC(c2cc3cccc(C)c3nc2Cl)C1 (centres undefined) | 0.78 µg/mL (≈ 2.28 µM)
15 | Cc1ccc2cc(C3CC(c4sccc4Cl)=NN3)c(Cl)nc2c1 (centres undefined) | 0.78 µg/mL (≈ 2.15 µM)
16 | Cc1cccc2cc(C3CC(c4ccc(Br)s4)=NN3)c(Cl)nc12 (centres undefined) | 0.93 µg/mL (≈ 2.29 µM)
17 | Cc1cccc2cc(C3CC(c4ccc(I)s4)=NN3)c(Cl)nc12 (centres undefined) | 0.77 µg/mL (≈ 1.7 µM)
18 | Cc1cccc2cc(/C=C/C(=O)c3ccc(I)s3)c(Cl)nc12 | 0.67 µg/mL (≈ 1.52 µM)
19 | Cc1cccc2cc(C3CC(c4cc(Cl)sc4Cl)=NN3)c(Cl)nc12 (centres undefined) | 0.79 µg/mL (≈ 1.99 µM)
20 | Cc1ccc2cc(C3CC(c4ccc(Br)s4)=NN3)c(Cl)nc2c1 (centres undefined) | 0.93 µg/mL (≈ 2.29 µM)
21 | Cc1ccc2cc(C3CC(c4sccc4Br)=NN3)c(Cl)nc2c1 (centres undefined) | 0.85 µg/mL (≈ 2.09 µM)
22 | Cc1ccc2cc(C3CC(c4ccc(Cl)s4)=NN3)c(Cl)nc2c1 (centres undefined) | 0.83 µg/mL (≈ 2.29 µM)
23 | Cc1cccc2cc(/C=C/C(=O)c3sccc3Br)c(Cl)nc12 | 0.93 µg/mL (≈ 2.37 µM)
24 | Cc1cccc2cc(C3CC(c4ccc(Cl)s4)=NN3)c(Cl)nc12 (centres undefined) | 0.75 µg/mL (≈ 2.07 µM)
25 | Cc1cccc2cc(C3CC(c4ccsc4)=NN3)c(Cl)nc12 (centres undefined) | 0.67 µg/mL (≈ 2.04 µM)
26 | Cc1ccc(C2=NNC(c3cc4cccc(C)c4nc3Cl)C2)s1 (centres undefined) | 0.89 µg/mL (≈ 2.6 µM)
27 | Cc1cccc2cc(C3CC(c4sccc4Cl)=NN3)c(Cl)nc12 (centres undefined) | 0.84 µg/mL (≈ 2.32 µM)
28 | Cc1ccc2cc(C3CC(c4cc(Cl)sc4Cl)=NN3)c(Cl)nc2c1 (centres undefined) | 0.71 µg/mL (≈ 1.79 µM)
29 | Cc1ccc2cc(C3CC(c4ccc(C)s4)=NN3)c(Cl)nc2c1 (centres undefined) | 0.89 µg/mL (≈ 2.6 µM)
30 | Cc1ccc(C(=O)/C=C/c2cc3cccc(C)c3nc2Cl)s1 | 0.61 µg/mL (≈ 1.86 µM)

Continued, values first:

Row | IC50 | SMILES
31 | 0.84 µg/mL (≈ 1.91 µM) | Cc1ccc2cc(/C=C/C(=O)c3ccc(I)s3)c(Cl)nc2c1
32 | 0.78 µg/mL (≈ 2.04 µM) | Cc1ccc2cc(/C=C/C(=O)c3cc(Cl)sc3Cl)c(Cl)nc2c1
33 | 0.59 µg/mL (≈ 1.69 µM) | Cc1ccc2cc(/C=C/C(=O)c3sccc3Cl)c(Cl)nc2c1
34 | 0.62 µg/mL (≈ 1.81 µM) | Cc1ccc2cc(/C=C/C(=O)c3cc(C)sc3C)c(Cl)nc2c1
35 | 0.59 µg/mL (≈ 1.8 µM) | Cc1csc(C(=O)/C=C/c2cc3cccc(C)c3nc2Cl)c1
36 | 0.78 µg/mL (≈ 2.24 µM) | Cc1cccc2cc(/C=C/C(=O)c3sccc3Cl)c(Cl)nc12
37 | 0.74 µg/mL (≈ 2.26 µM) | Cc1ccc2cc(/C=C/C(=O)c3ccc(C)s3)c(Cl)nc2c1
38 | 0.88 µg/mL (≈ 2.8 µM) | Cc1ccc2cc(/C=C/C(=O)c3ccsc3)c(Cl)nc2c1
39 | 0.91 µg/mL (≈ 2.32 µM) | Cc1ccc2cc(/C=C/C(=O)c3ccc(Br)s3)c(Cl)nc2c1
40 | 0.61 µg/mL (≈ 1.94 µM) | Cc1cccc2cc(/C=C/C(=O)c3ccsc3)c(Cl)nc12
41 | 0.92 µg/mL (≈ 2.81 µM) | Cc1ccc2cc(/C=C/C(=O)c3sccc3C)c(Cl)nc2c1
42 | 0.83 µg/mL (≈ 2.53 µM) | Cc1csc(C(=O)/C=C/c2cc3ccc(C)cc3nc2Cl)c1
43 | 0.71 µg/mL (≈ 1.81 µM) | Cc1ccc2cc(/C=C/C(=O)c3sccc3Br)c(Cl)nc2c1
44 | 0.81 µg/mL (≈ 2.33 µM) | Cc1ccc2cc(/C=C/C(=O)c3ccc(Cl)s3)c(Cl)nc2c1
